Experiment in all cases: NCI anticancer screen, dose series, 48 h
Assay [1] has as its system CAKI-1 renal.
For assay [2], the system named is DMS 273 small cell lung.
In assay [3] the test system is HL-60(TB) leukemia.
The subject of assay [4] is HOP-92 NSCLC.
Assay [5] deals with LXFL 529 NSCLC.
In assay [6] the test system is SK-MEL-28 melanoma.
Assay [7] has as its system SK-MEL-5 melanoma.
In assay [8] the test system is UACC-257 melanoma.
The subject of assay [9] is KM12 colon.
Assay [10] relates to DU-145 prostate.

In PubChem BioAssay (NCI) one finds TGI and GI50 data, which are given here for 14 compounds.

Molecules are shown by their SMILES.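 Results reflect a 48-hour exposure of cells in 96-well plates to compound at five concentrations. GI50: concentration for 50% inhibition of growth. TGI is the concentration that stops growth completely.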

On to `CC1(C)Oc2ccccc2[N+]([O-])=C1c1ccccc1`, for which the TGI in assay [1], in [2], in [3], in [4], in assay [5] and in [6] was > 100 µM throughout. The TGI in assay [7] and in [8] was > 100 µM in each case.
In the case of `Nc1nc(CC2(O)CCCCC2)cc(-c2ccccc2)n1`, the TGI in assay [1] was > 100 µM; in [2], > 66 µM; in assay [3], 47.9 µM; in assay [4] it was > 71.9 µM; in assay [9] it was > 57 µM; in assay [5], > 100 µM. In addition, the TGI in [6] is > 100 µM; in assay [7], > 57.4 µM; in [8], > 78.1 µM.
In the case of `CSC1SCC2C(=O)N(C)C(C(C)C)C(=O)OCC(NC(=O)c3cnc4ccccc4n3)C(=O)NC(C)C(=O)N(C)C1C(=O)N(C)C(C(C)C)C(=O)OCC(NC(=O)c1cnc3ccccc3n1)C(=O)NC(C)C(=O)N2C` (stereo unspecified), the GI50 in assay [1] was < 0.001 µM; in assay [2], 0.04 nM; in [10], < 0.001 µM; in assay [3], < 0.001 µM; in [4], < 0.001 µM; in assay [9] it was < 0.001 µM. The GI50 in [6] and in assay [8] was < 0.001 µM each time.
In the case of `CC(C)Cc1ccc(C(C)/C=C2\CCC(CN3CCCCC3)C2=O)cc1` (stereo unspecified), the TGI in assay [1] stood at 20.4 µM; in assay [2] it was 7.2 µM; in assay [10] it was 31 µM; in assay [3], 5 µM; in assay [4], 30.4 µM; in assay [9], 6.36 µM. Moreover, the TGI turned out to be 3.55 µM in assay [5], 11 µM in assay [6], 27 µM in assay [7] and 26.4 µM in assay [8].
For the compound `COc1c(Cl)[c]([Hg][O]C(C)=O)c(NCC(C)=O)c(OC)[c]1[Hg][O]C(C)=O`, the GI50 was 20.2 µM in assay [1]; 19.9 µM in [3]; 2.28 µM in [4]; 31.7 µM in assay [9]; 1.06 µM in [5]; 13.3 µM in assay [6]. The values for the GI50 in assay [7] and in assay [8] were 11.1 µM and 15.4 µM, respectively. Also, the TGI in assay [1] is 35.1 µM; in assay [3] it was 50.1 µM; in assay [4], 6.8 µM; in [9], > 100 µM; in assay [5], 3.68 µM; in assay [6], 26.2 µM. Moreover, the TGI in assay [7] turned out to be 26.1 µM; in assay [8], 29.9 µM.
As to `CCC(C)(C)NS(=O)(=O)c1ccccc1`, the TGI in [1], in assay [2], in assay [3], in assay [9], in assay [5] and in [6] was > 100 µM in each case. Further, the TGI in assay [7] and in [8] was > 100 µM in each case.
As to `N.N.NCCCCCN.O=C([O-])CC(=O)[O-].O=C([O-])CC(=O)[O-].[Pt+4].[Pt+4]`, the GI50 is 39.6 µM in assay [3]; > 100 µM in assay [4]; > 100 µM in assay [9]; > 100 µM in assay [5]; > 100 µM in assay [6]; > 100 µM in [7]. In addition, in assay [8], the GI50 was > 100 µM. Moreover, the TGI in [3], in assay [4], in assay [9], in assay [5], in assay [6] and in [7] was > 100 µM in each case. For the same compound, the TGI in [8] is > 100 µM.
With `CCOC(=O)NC(=O)c1cn(C2OC(COC(=O)CCCCCCCCC(=O)OCC3OC(n4cc(C(=O)NC(=O)OCC)c(=O)[nH]c4=O)C4OC(C)(C)OC34)C3OC(C)(C)OC32)c(=O)[nH]c1=O` (stereo unspecified), the TGI in assay [1], in assay [2], in [3], in [4], in [9] and in assay [5] was > 100 µM in each case. The TGI in [6], in assay [7] and in assay [8] was > 100 µM in each case.
For `CCN(CC)/[N+]([O-])=N/OCC(C)O` (stereo unspecified), the TGI in [1], in assay [2], in assay [3], in assay [4], in assay [9] and in assay [6] was > 100 µM in each case. Further, the TGI in assay [7] and in assay [8] was > 100 µM in each case.
With `COc1cc2ccc3c4cc(OC)c(OC(C)C)cc4c[n+](C)c3c2cc1OC`, the TGI in [1], in [3], in assay [4], in assay [9], in [5] and in assay [6] was > 100 µM in each case. In addition, the TGI in [7] and in assay [8] was > 100 µM throughout.
In the case of `Cc1nc(-n2nc(-c3ccccc3)cc2-c2ccccc2)sc1C(=O)/C=C/c1ccc(Cl)cc1`, the TGI in assay [1] was 62.7 µM; in assay [2] it was > 100 µM; in assay [3], 33.1 µM; in [4], 43 µM; in assay [9], 25.6 µM; in assay [6], 33.6 µM. For the same compound, the TGI in assay [7] was 31 µM; in [8], 49.1 µM.
Regarding `COc1cc(/C=C2\Cc3ccccc3C2=O)cc(OC)c1OC`, the TGI in assay [1], in [2], in [3], in assay [4], in [9] and in [5] was > 100 µM throughout. For the same compound, the TGI in assay [6], in [7] and in assay [8] was > 100 µM in each case.
For `O=C(CC1SC(=Nc2ccccc2Cl)NC1=O)Nc1ccc(Cl)cc1` (stereo unspecified), the TGI in [1], in assay [2], in assay [3], in assay [9], in [5] and in assay [6] was > 100 µM each time. In addition, the TGI in [7] and in [8] was > 100 µM in each case.
For `C/C=C(\C)C(=O)N1c2ccccc2CC1c1c(C)[nH]c2ccccc12` (stereo unspecified), the TGI was > 100 µM in assay [1]; > 100 µM in [2]; > 100 µM in assay [3]; 99.4 µM in [4]; > 100 µM in [9]; > 100 µM in assay [5]. In addition, the TGI in [6] and in assay [8] was > 100 µM in each case.
